# Assay results reported in patent publication US7183324B2, “2,3,4-substituted cyclopentanones as therapeutic agents” (Allergan, Inc., priority 2004, dated 2007).
# What was measured:
# Beagle dogs [1] = assay: Intraocular pressure in dogs (pneumatonometry); assay type: in vivo; conditions: dog, topical 25 μL drop, 5 day study
# Protocol: (§1) • Intraocular Pressure (IOP) Intraocular pressure studies in dogs involved pneumatonometry performed in conscious, Beagle dogs of both sexes (10–15 kg). The animals remained conscious throughout the study and were gently restrained by hand. Drugs were administered topically to one eye as a 25 μL volume drop, the other eye received 25 μL vehicle (0.1% polysorbate 80:10 mM TRIS) as a control. Proparacaine (0.1%) was used for corneal anesthesia during tonometry. Intraocular pressure was determined just before drug administration and at 2, 4 and 6 hr thereafter on each day of the 5 day study. Drug was administered immediately after the first IOP reading. • An analogous procedure was carried out with cynomolgus monkeys with measurements at 2, 4, 6, and 24 hours after a single dose. • Pupil Diameter • Dog pupil diameter was measured using an optistick (a mm ruler which included half-circle references of standard widths (mm) for reference. Gently restraining the dog by hand, pupil diameter was determined by matching a half-circle to the pupil in normal room light. In dogs with very dark pupils a specialized penlight was used, but only very briefly to avoid pupil constriction. Pupil diameter was measured at the same time as IOP and hyperemia. • Ocular Surface Hyperemia • Ocular surface hyperemia was visually assessed and scored according to a system typically used clinically.
# Beagle dogs [2] = assay: Ocular surface hyperemia in dogs; assay type: in vivo; conditions: dog, topical, score: trace 0.5, mild 1, moderate 2, severe 3
# Protocol: as §1
# • Ocular surface hyperemia was evaluated at the same time points as intraocular pressure measurement. It should be noted that untreated dog eyes frequently have a pink/red tone. Thus, values of trace or even mild are not necessarily out of the normal range.
# hEP4/Gqs5 = target: T1, hEP4/Gqs5 (Homo sapiens, UniProt P35408); assay: FLIPR calcium signal, hEP4/Gqs5; assay type: cell-based; conditions: HEK-293 (EBNA) cells, read-out: FUNCTIONAL EC50 HEP4
# T1 construct: expressed in transfected cells; host or cells: HEK-293 (EBNA)
# Protocol: (§2) HEK-293 (EBNA) cells, stably expressing one type or subtype of recombinant human prostaglandin receptors (prostaglandin receptors expressed: hDP/Gqs5; hEP1; hEP2/Gqs5; hEP3A/Gqi5; hEP4/Gqs5; hFP; hIP; hTP), were cultured in 100 mm culture dishes in high-glucose DMEM medium containing 10% fetal bovine serum, 2 mM 1-glutamine, 250 μg/ml geneticin (G418) and 200 μg/ml hygromycin B as selection markers, and 100 units/ml penicillin G, 100 μg/ml streptomycin and 0.25 μg/ml amphotericin B. • (b) Calcium Signal Studies on the FLIPR™
# (§3) Cells were seeded at a density of 5×10^4 cells per well in Biocoat® Poly-D-lysine-coated black-wall, clear-bottom 96-well plates (Becton-Dickinson) and allowed to attach overnight in an incubator at 37° C. Cells were then washed two times with HBSS-HEPES buffer (Hanks Balanced Salt Solution without bicarbonate and phenol red, 20 mM HEPES, pH 7.4) using a Denley Cellwash plate washer (Labsystems). After 45 minutes of dye-loading in the dark, using the calcium-sensitive dye Fluo-4 AM at a final concentration of 2 μM, plates were washed four times with HBSS-HEPES buffer to remove excess dye leaving 100 μl in each well. Plates were re-equilibrated to 37° C. for a few minutes.
# (§4) Cells were excited with an Argon laser at 488 nm, and emission was measured through a 510–570 nm bandwidth emission filter (FLIPR™, Molecular Devices, Sunnyvale, Calif.). Drug solution was added in a 50 μl volume to each well to give the desired final concentration. The peak increase in fluorescence intensity was recorded for each well. On each plate, four wells each served as negative (HBSS-HEPES buffer) and positive controls (standard agonists: BW245C (hDP); PGE2 (hEP1; hEP2/Gqs5; hEP3A/Gqi5; hEP4/Gqs5); PGF2α (hFP); carbacyclin (hIP); U46619 (hTP), depending on receptor). The peak fluorescence change in each drug-containing well was then expressed relative to the controls.
# (§5) Compounds were tested in a high-throughput (HTS) or concentration-response (CoRe) format. In the HTS format, forty-four compounds per plate were examined in duplicates at a concentration of 10^−5 M. To generate concentration-response curves, four compounds per plate were tested in duplicates in a concentration range between 10^−5 and 10^−11 M. The duplicate values were averaged. In either, HTS or CoRe format each compound was tested on at least 3 separate plates using cells from different passages to give an n≧3.
# HEP4 = target: T2, HEP4 (Homo sapiens, UniProt P35408); assay: Radioligand binding, EP4 receptor; conditions: [3H]PGE2 5 nM, HEK-293 membranes
# T2 construct: expressed in transfected cells; host or cells: HEK-293
# Protocol: (§6) HEK-293 cells stably expressing the human or feline FP receptor, or EP1, EP2, or EP4 receptors were washed with TME buffer, scraped from the bottom of the flasks, and homogenized for 30 sec using a Brinkman PT 10/35 polytron. TME buffer was added to achieve a final 40 ml volume in the centrifuge tubes (the composition of TME is 100 mM TRIS base, 20 mM MgCl2, […]; 10N HCl is added to achieve a pH of 7.4).
# (§7) The cell homogenate was centrifuged at 19000 r.p.m. for 20 min at 4° C. using a Beckman Ti-60 rotor. The resultant pellet was resuspended in TME buffer to give a final 1 mg/ml protein concentration, as determined by Biorad assay. Radioligand binding competition assays vs. [^3H-]17-phenyl PGF2α (5 nM) were performed in a 100 μl volume for 60 min. Binding reactions were started by adding plasma membrane fraction. The reaction was terminated by the addition of 4 ml ice-cold TRIS-HCl buffer and rapid filtration through glass fiber GF/B filters using a Brandel cell harvester. The filters were washed 3 times with ice-cold buffer and oven dried for one hour. Non-specific binding was determined with 10 uM unlabeled 17-phenyl PGF2α.
# (§8) [^3H-] PGE2 (5 nM; specific activity 180 Ci mmol) was used as the radioligand for EP receptors. Binding studies employing EP1, EP2, EP3, EP4 were performed in duplicate in at least three separate experiments. A 200 μl assay volume was used. Incubations were for 60 min at 25° C. and were terminated by the addition of 4 ml of ice-cold 50 mM TRIS-HCl, followed by rapid filtration through Whatman GF/B filters and three additional 4 ml washes in a cell harvester (Brandel). Non-specific binding determined with 10^−5M of unlabeled PGE2.
# HEP2 = target: T3, HEP2 (Homo sapiens, UniProt P43116); assay: Radioligand binding, EP2 receptor; conditions: [3H]PGE2 5 nM, HEK-293 membranes
# T3 construct: expressed in transfected cells; host or cells: HEK-293
# Protocol: as §6, §7, §8
# hTP = target: T4, hTP (Homo sapiens, UniProt P21731); assay: FLIPR calcium signal, hTP; assay type: cell-based; conditions: HEK-293 (EBNA) cells, read-out: FUNCTIONAL EC50 HTP
# T4 construct: expressed in transfected cells; host or cells: HEK-293 (EBNA)
# T4 sequence (P21731 1-343): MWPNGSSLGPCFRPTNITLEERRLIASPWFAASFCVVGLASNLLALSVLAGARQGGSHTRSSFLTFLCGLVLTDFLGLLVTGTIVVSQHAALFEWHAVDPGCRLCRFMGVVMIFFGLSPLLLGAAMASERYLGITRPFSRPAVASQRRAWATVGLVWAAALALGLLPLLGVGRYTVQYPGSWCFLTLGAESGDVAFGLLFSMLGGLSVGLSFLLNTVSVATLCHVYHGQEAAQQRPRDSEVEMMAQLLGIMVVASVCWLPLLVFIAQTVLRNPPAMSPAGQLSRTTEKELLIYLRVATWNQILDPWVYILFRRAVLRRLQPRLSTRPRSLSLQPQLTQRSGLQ
# Protocol: as §2, §3, §4, §5
# hEP3A/Gqi5 = target: T5, hEP3A/Gqi5 (Homo sapiens, UniProt P43115); assay: FLIPR calcium signal, hEP3A/Gqi5; assay type: cell-based; conditions: HEK-293 (EBNA) cells, read-out: FUNCTIONAL EC50 HEP3A
# T5 construct: expressed in transfected cells; host or cells: HEK-293 (EBNA)
# T5 sequence (P43115 1-390): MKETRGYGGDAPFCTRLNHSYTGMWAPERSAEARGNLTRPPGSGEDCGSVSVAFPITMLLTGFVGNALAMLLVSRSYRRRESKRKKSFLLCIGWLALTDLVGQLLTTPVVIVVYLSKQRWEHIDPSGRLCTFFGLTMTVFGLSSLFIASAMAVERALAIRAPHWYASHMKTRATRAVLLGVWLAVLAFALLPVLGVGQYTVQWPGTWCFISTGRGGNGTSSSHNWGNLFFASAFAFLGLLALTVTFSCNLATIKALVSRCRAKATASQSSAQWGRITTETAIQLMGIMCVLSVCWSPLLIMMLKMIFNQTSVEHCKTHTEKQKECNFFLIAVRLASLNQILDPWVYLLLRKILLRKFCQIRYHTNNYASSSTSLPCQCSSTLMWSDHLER
# Protocol: as §2, §3, §4, §5
# HEP3D = target: T6, HEP3D (Homo sapiens, UniProt P43115); assay: Radioligand binding, EP3 receptor; conditions: [3H]PGE2 5 nM
# T6 sequence (P43115 1-374 isoform P43115-4): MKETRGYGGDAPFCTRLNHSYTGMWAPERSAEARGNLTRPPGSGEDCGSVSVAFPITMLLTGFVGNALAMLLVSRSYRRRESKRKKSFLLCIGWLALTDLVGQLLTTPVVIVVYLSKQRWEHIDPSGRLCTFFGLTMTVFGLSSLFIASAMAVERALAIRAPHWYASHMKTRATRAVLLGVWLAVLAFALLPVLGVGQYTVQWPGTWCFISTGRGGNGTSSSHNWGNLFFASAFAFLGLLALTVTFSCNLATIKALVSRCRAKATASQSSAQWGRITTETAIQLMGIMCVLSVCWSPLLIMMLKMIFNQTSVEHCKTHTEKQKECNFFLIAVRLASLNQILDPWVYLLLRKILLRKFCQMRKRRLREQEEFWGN
# Protocol: as §6, §7, §8
# T1 sequence (P35408 whole entry): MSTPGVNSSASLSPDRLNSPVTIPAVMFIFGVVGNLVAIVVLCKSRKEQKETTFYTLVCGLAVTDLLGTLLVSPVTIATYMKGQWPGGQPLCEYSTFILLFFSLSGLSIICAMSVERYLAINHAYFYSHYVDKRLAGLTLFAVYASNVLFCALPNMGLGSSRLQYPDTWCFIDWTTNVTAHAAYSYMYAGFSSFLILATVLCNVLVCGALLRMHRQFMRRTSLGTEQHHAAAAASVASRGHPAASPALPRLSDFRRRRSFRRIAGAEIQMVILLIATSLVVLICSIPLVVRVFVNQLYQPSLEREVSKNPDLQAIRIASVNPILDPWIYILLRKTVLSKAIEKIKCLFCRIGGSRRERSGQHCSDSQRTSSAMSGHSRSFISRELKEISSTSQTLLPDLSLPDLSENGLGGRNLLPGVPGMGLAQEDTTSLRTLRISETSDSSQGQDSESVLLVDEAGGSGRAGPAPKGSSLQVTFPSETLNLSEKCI
# T2 sequence (P35408 whole entry): as above
# T3 sequence (P43116 whole entry): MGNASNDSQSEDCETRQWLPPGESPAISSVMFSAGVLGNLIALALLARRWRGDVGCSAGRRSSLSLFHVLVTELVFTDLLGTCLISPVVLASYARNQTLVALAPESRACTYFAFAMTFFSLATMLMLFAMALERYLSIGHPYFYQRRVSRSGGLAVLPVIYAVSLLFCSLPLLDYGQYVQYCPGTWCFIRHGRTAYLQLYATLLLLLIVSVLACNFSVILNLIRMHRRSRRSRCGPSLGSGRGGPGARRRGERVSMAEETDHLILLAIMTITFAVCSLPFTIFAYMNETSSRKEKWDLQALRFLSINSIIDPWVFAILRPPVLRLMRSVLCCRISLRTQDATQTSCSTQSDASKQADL
Structure (SMILES),Max. ΔIOP (Beagle dogs [1]; Conc. 0.03%),Max hyperemia (Beagle dogs [2]; Conc. 0.03%),EC50 (hEP4/Gqs5),IC50 (HEP4),Max. ΔIOP (Beagle dogs [1]; Conc. 0.1%),Max hyperemia (Beagle dogs [2]; Conc. 0.1%),IC50 (HEP2),EC50 (hTP),EC50 (hEP3A/Gqi5),IC50 (HEP3D)
"CC(C)OC(=O)CSCCCS[C@H]1C(=O)C[C@@H](CO)[C@@H]1/C=C/C(O)Cc1ccccc1 (single isomer, unassigned) [Compound 150, {3-[3-Hydroxymethyl-2-(3-hydroxy-4-phenyl-but-1-enyl)-5-oxo-cyclopentylsulfanyl]-propylsulfanyl}-acetic acid isopropyl ester]",−5.5 mm Hg,0.9,–,–,–,–,–,–,–,–
"O=C(O)CSCCCS[C@H]1C(=O)C[C@@H](CO)[C@@H]1/C=C/C(O)CCc1ccc2ccccc2c1 (stereo partly drawn) [Compound 141b, {3-[(1R,2S,3R)-3-Hydroxymethyl-2-((E)-3-hydroxy-5-naphthalen-2-yl-pent-1-enyl)-5-oxo-cyclopentylsulfanyl]-propylsulfanyl}-acetic acid]",–,–,219 nM,400 nM,−1.6 mm Hg,0.7,–,–,–,–
"O=C(O)CSCCCS[C@H]1C(=O)CC[C@@H]1/C=C/C(O)CCc1ccc2ccccc2c1 (single isomer, unassigned) [drawing 36]",–,–,1 nM,140 nM,–,–,8100 nM,–,–,–
"O=C(O)CSCCCS[C@H]1C(=O)CC[C@@H]1/C=C/C(O)CCc1ccc2ccccc2c1 (single isomer, unassigned) [Compound 153]",–,–,0.3 nM,140 nM,−4.4 mm Hg,1.8,> 10000 nM,> 10000 nM,> 10000 nM,–
"COC(=O)CSCCCS[C@H]1C(=O)CC[C@@H]1/C=C/C(O)Cc1ccccc1 (single isomer, unassigned) [drawing 46]",–,–,0.09 nM,19 nM,–,–,–,> 10000 nM,> 10000 nM,> 10000 nM
"O=C(O)CSCCCS[C@H]1C(=O)CC[C@@H]1/C=C/C(O)Cc1ccccc1 (single isomer, unassigned) [drawing 48]",–,–,–,11 nM,–,–,–,> 10000 nM,> 10000 nM,> 10000 nM
"O=C(O)CSCCCS[C@H]1C(=O)CC[C@@H]1/C=C/C(O)CCc1cc2ccccc2s1 (stereo partly drawn) [drawing 25, {3-[(1R,2R)-2-((E)-5-Benzo[b]thiophen-2-yl-3-hydroxy-pent-1-enyl)-5-oxo-cyclopentylsulfanyl]-propylsulfanyl}-acetic acid]",–,–,3.7 nM,44 nM,–,–,> 10000 nM,> 10000 nM,1950 nM,> 10000 nM
"O=C(O)CSCCCS[C@H]1C(=O)CC[C@@H]1/C=C/C(O)Cc1ccc2ccccc2c1 (stereo partly drawn) [{3-[(1R,2R)-2-((E)-3-Hydroxy-4-naphthalen-2-yl-but-1-enyl)-5-oxo-cyclopentylsulfanyl]-propylsulfanyl}-acetic acid]",–,–,0.4 nM,26 nM,–,–,–,> 10000 nM,> 10000 nM,> 10000 nM
"COC(=O)CSCCCS[C@H]1C(=O)CC[C@@H]1/C=C/C(O)CCc1cc2ccccc2s1 (stereo partly drawn) [drawing 28, {3-[(1R,2R)-2-((E)-5-Benzo[b]thiophen-2-yl-3-hydroxy-pent-1-enyl)-5-oxo-cyclopentylsulfanyl]-propylsulfanyl}-acetic acid methyl ester]",–,–,11 nM,300 nM,–,–,> 10000 nM,–,–,–
"O=C(O)CSCCCS[C@H]1C(=O)CC[C@@H]1/C=C/C(O)CCc1cc2ccccc2s1 (stereo partly drawn) [drawing 26, {3-[(1R,2R)-2-((E)-5-Benzo[b]thiophen-2-yl-3-hydroxy-pent-1-enyl)-5-oxo-cyclopentylsulfanyl]-propylsulfanyl}-acetic acid]",–,–,2.4 nM,45 nM,–,–,> 10000 nM,–,–,> 10000 nM
